Results reported in patent publication EP1157002B1, “1,2,3,4-TETRAHYDRO-1-NAPHT[…] USEFUL IN THERAPY” (Pfizer Limited, priority 1999, dated 2000).
pIC50: −log10 of the molar value. Counter-ions that a name gives are not always drawn. Like-named read-outs stand apart in the source and are kept apart here.

Molecular target: T1, human serotonin transporter (hSERT) (Homo sapiens, UniProt P31645)
T1 construct: expressed in transfected cells; host or cells: HEK-293 (human embryonic kidney cells), stably transfected
Assay: Test A: uptake of 3H-serotonin into human embryonic kidney cells (HEK-293) expressing the human serotonin transporter
Assay type: cell-based
Procedure: Uptake of ^3H-biogenic amines into human embryonic kidney cells expressing the human serotonin (5-HT), noradrenalin or dopamine transporter
Human embryonic kidney cells (HEK-293) stably transfected with either the human serotonin transporter (hSERT), noradrenalin transporter (hNET) or dopamine transporter (hDAT) were cultured under standard cell culture techniques (cells were grown at 37°C and 5% CO2 in DMEM-culture media (supplemented with 10% dialysed foetal calf serum (FCS), 2mM 1-glutamine and 250µg/ml geneticin)). Cells were harvested for the assay to yield a cell suspension of 750,000 cells/ml.
Assays were carried out in 96-well filter bottom plates. Cells (7500 cells/assay well) were pre-incubated in standard assay buffer containing either test compound, standard inhibitor or compound vehicle (1% DMSO) for 5 minutes. Reactions were started by addition of either ^3H-Serotonin, ^3H-Noradrenaline or ^3H-Dopamine substrates. All reactions were carried out at room temperature in a shaking incubator. Incubation times were 5 minutes for the hSERT and hDAT assays and 15 minutes for the hNET assay. Reactions were terminated by removal of the reaction mixture using a vacuum manifold followed by rapid washing with ice cold assay buffer. The quantity of ^3H-substrate incorporated into the cells was then quantified.
Assay plates were dried in a microwave oven, scintillation fluid added, and radioactivity measured. Potency of test compounds was quantified as IC50 values (concentration of test compound required to inhibit the specific uptake of radiolabelled substrate into the cells by 50%).
Standard Assay Buffer Composition: • Trizma hydrochloride (26mM) • NaCl (124mM) • KCl (4.5mM) • KH2PO4 (1.2mM) • MgCl2.6H2O (1.3mM) • Ascorbic acid (1.136mM) • Glucose (5.55mM) • pH 7.40 • CaCl2 (2.8mM) • Pargyline (100µM)
Note: The pH of the buffer was adjusted to 7.40 with 1M NaOH before addition of CaCl2 and pargyline.

[1] = inhibition of the up-take of serotonin by human serotonin transporters, HEK-293 hSERT cells, 3H-5HT (50nM), incubation 5 minutes, room temperature, read-out: IC50 value

T1 sequence (P31645 whole entry): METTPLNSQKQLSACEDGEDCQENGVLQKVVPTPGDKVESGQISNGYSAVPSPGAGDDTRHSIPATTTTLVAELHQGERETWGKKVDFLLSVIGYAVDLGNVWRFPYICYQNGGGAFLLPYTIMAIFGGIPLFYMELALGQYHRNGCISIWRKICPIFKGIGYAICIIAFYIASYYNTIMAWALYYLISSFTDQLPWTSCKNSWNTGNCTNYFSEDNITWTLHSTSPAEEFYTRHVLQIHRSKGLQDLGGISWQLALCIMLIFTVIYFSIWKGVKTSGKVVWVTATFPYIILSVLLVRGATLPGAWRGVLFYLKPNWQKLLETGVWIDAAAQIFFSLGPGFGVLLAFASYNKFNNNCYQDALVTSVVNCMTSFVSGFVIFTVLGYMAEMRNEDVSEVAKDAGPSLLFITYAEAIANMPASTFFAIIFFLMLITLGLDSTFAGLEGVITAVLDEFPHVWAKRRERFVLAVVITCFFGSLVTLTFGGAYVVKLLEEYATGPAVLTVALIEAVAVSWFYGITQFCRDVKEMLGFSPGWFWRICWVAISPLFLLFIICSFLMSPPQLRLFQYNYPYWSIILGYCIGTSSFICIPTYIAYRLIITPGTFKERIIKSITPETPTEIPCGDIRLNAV

Row | SMILES | pIC50 [1] | pIC50
1 | CN[C@H]1CC[C@@H](c2ccc(Cl)c(Cl)c2)c2ccc(CNC(N)=O)cc21 [Example 37, Cis-(1S)-N-methyl-7-((N-aminocarboxy)aminomethyl)-4-(3,4-dichlorophenyl)-1,2,3,4-tetrahydro-1-naphthalenamine hydrochloride] | ≥ 7.00 | –
2 | CN[C@H]1CC[C@@H](c2ccc(Cl)c(Cl)c2)c2ccc(-c3ncn[nH]3)cc21 [Example 55, Cis-(1S)-N-methyl-7-(3-(1,2,4-triazolyl))-4-(3,4-dichlorophenyl)-1,2,3,4-tetrahydro-1-naphthalenamine hydrochloride] | ≥ 7.00 | –
3 | CN[C@H]1CC[C@@H](c2ccc(Cl)c(Cl)c2)c2ccc(-c3ncnn3C)cc21 [Example 56, Cis-(1S)-N-methyl-7-(3-(N(2)methyl-1,2,4-triazolyl)-4-(3,4-dichlorophenyl)-1,2,3,4-tetrahydro-1-naphthalenamine hydrochloride] | ≥ 7.00 | –
4 | CN[C@H]1CC[C@@H](c2ccc(Cl)c(Cl)c2)c2ccc(CS(C)(=O)=O)cc21 [Example 74, Cis-(1S)-N-methyl-7-((methylsulphonyl)methyl)-4-(3,4-dichlorophenyl)-1,2,3,4-tetrahydro-1-naphthalenamine] | – | ≥ 7.00
